From ChEMBL document CHEMBL3132785, “Design, synthesis and evaluation of N6-substituted 2-aminoadenosine-5-N-methylcarboxamides as A3 adenosine receptor agonists” (Medchemcomm, 2014) come the findings set out here.

Sequence of Adenosine receptor A2a (P29274 whole entry): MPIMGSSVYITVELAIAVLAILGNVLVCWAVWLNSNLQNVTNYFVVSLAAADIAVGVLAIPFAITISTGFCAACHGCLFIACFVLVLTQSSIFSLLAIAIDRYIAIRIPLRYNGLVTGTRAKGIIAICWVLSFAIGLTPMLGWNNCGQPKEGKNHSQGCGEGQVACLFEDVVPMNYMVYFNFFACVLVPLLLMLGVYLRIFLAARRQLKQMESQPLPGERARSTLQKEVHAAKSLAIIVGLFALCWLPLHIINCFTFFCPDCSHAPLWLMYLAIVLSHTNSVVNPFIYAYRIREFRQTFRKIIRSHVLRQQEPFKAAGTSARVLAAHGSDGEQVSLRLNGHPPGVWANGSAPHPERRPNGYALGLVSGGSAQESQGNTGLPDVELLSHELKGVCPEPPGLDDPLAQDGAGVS

The species named for one assay is Homo sapiens. As to the kind of experiment: Selectivity ratio; ratio of pEC50 for human adenosine A2B receptor to pEC50 for human adenosine A3 receptor.
On to `CNC(=O)[C@H]1O[C@@H](n2cnc3c(NCC(c4ccccc4)c4ccccc4)nc(N)nc32)[C@H](O)[C@@H]1O`, for which the Selectivity ratio worked out at 40.

In the case of `CCNc1nc(N)nc2c1ncn2[C@@H]1O[C@H](C(=O)NC)[C@@H](O)[C@H]1O`, the Selectivity ratio came out at 158.

With `CNC(=O)[C@H]1O[C@@H](n2cnc3c(NC4CCC4)nc(N)nc32)[C@H](O)[C@@H]1O`, the Selectivity ratio came out at 40.

As for `CNC(=O)[C@H]1O[C@@H](n2cnc3c(NC4CCCCC4)nc(N)nc32)[C@H](O)[C@@H]1O`, the Selectivity ratio is 20.

Turning to `CCN(CC)c1nc(NC2CCCC2)c2ncn([C@@H]3O[C@H](C(=O)NC)[C@@H](O)[C@H]3O)c2n1`, the Selectivity ratio was above 4.

On to `CNC(=O)[C@H]1O[C@@H](n2cnc3c(NCc4cccc(Cl)c4)nc(N)nc32)[C@H](O)[C@@H]1O`, for which the Selectivity ratio was found to be 631.

As for `CCCCNc1nc(N)nc2c1ncn2[C@@H]1O[C@H](C(=O)NC)[C@@H](O)[C@H]1O`, the Selectivity ratio is 32.

Regarding `CNC(=O)[C@H]1O[C@@H](n2cnc3c(NC4CCCC4)nc(N(C)C)nc32)[C@H](O)[C@@H]1O`, the Selectivity ratio is above 16.

Another assay is filed under the species Homo sapiens. The experiment in a line: Selectivity ratio; ratio of pEC50 for human adenosine A2A receptor to pEC50 for human adenosine A3 receptor.
On to `CNC(=O)[C@H]1O[C@@H](n2cnc3c(NCC(c4ccccc4)c4ccccc4)nc(N)nc32)[C@H](O)[C@@H]1O`, for which the Selectivity ratio turned out to be 158.

As to `CCNc1nc(N)nc2c1ncn2[C@@H]1O[C@H](C(=O)NC)[C@@H](O)[C@H]1O`, the Selectivity ratio was above 1000.

`CNC(=O)[C@H]1O[C@@H](n2cnc3c(NC4CCC4)nc(N)nc32)[C@H](O)[C@@H]1O`: the Selectivity ratio was determined as 501.

With `CNC(=O)[C@H]1O[C@@H](n2cnc3c(NC4CCCCC4)nc(N)nc32)[C@H](O)[C@@H]1O`, the Selectivity ratio worked out at 6.

Turning to `CCN(CC)c1nc(NC2CCCC2)c2ncn([C@@H]3O[C@H](C(=O)NC)[C@@H](O)[C@H]3O)c2n1`, the Selectivity ratio was above 4.

With `CNC(=O)[C@H]1O[C@@H](n2cnc3c(NCc4cccc(Cl)c4)nc(N)nc32)[C@H](O)[C@@H]1O`, the Selectivity ratio turned out to be 631.

Consider `CCCCNc1nc(N)nc2c1ncn2[C@@H]1O[C@H](C(=O)NC)[C@@H](O)[C@H]1O`, for which the Selectivity ratio is above 251.

With `CNC(=O)[C@H]1O[C@@H](n2cnc3c(NC4CCCC4)nc(N(C)C)nc32)[C@H](O)[C@@H]1O`, the Selectivity ratio is 8.

For another assay, the target named is Adenosine receptors; A1 & A3 (Homo sapiens) (UniProt P30542+P0DMS8). The experiment in a line: Selectivity ratio; ratio of pEC50 for human adenosine A1 receptor to pEC50 for human adenosine A3 receptor.
`CNC(=O)[C@H]1O[C@@H](n2cnc3c(NCC(c4ccccc4)c4ccccc4)nc(N)nc32)[C@H](O)[C@@H]1O`: the Selectivity ratio turned out to be 79.

Regarding `CCNc1nc(N)nc2c1ncn2[C@@H]1O[C@H](C(=O)NC)[C@@H](O)[C@H]1O`, the Selectivity ratio was 251.

As for `CNC(=O)[C@H]1O[C@@H](n2cnc3c(NC4CCC4)nc(N)nc32)[C@H](O)[C@@H]1O`, the Selectivity ratio worked out at 13.

For `CNC(=O)[C@H]1O[C@@H](n2cnc3c(NC4CCCCC4)nc(N)nc32)[C@H](O)[C@@H]1O`, the Selectivity ratio is 1.

As to `CCN(CC)c1nc(NC2CCCC2)c2ncn([C@@H]3O[C@H](C(=O)NC)[C@@H](O)[C@H]3O)c2n1`, the Selectivity ratio was above 4.

On to `CNC(=O)[C@H]1O[C@@H](n2cnc3c(NCc4cccc(Cl)c4)nc(N)nc32)[C@H](O)[C@@H]1O`, for which the Selectivity ratio stood at 501.

As for `CCCCNc1nc(N)nc2c1ncn2[C@@H]1O[C@H](C(=O)NC)[C@@H](O)[C@H]1O`, the Selectivity ratio was 20.

On to `CNC(=O)[C@H]1O[C@@H](n2cnc3c(NC4CCCC4)nc(N(C)C)nc32)[C@H](O)[C@@H]1O`, for which the Selectivity ratio is above 16.

Another assay has as its target T1, Adenosine receptor A3 (Homo sapiens, UniProt P0DMS8).
T1 sequence (P0DMS8 whole entry): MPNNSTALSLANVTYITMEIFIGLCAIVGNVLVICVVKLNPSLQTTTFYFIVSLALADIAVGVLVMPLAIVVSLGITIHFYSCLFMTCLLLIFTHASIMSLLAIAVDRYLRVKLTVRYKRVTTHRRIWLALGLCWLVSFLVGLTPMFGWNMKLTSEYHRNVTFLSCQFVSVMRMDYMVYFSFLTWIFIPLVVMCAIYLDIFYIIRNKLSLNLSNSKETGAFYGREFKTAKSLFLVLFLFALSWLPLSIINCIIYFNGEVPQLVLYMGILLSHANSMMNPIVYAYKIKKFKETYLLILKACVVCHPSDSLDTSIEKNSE
The experiment in a line: Agonist activity at human adenosine A3 receptor expressed in FlpIn-CHO cells assessed as inhibition of forskolin-induced cAMP accumulation after 30 mins by fluorescence assay. It is filed as functional, cell-based.
As to `CNC(=O)[C@H]1O[C@@H](n2cnc3c(NCC(c4ccccc4)c4ccccc4)nc(N)nc32)[C@H](O)[C@@H]1O`, the 50% effective concentration (EC50) is 5.01 nM.

For the molecule `CCNc1nc(N)nc2c1ncn2[C@@H]1O[C@H](C(=O)NC)[C@@H](O)[C@H]1O`, the half-maximal effective concentration (EC50) is 10 nM.

In the case of `CNC(=O)[C@H]1O[C@@H](n2cnc3c(NC4CCC4)nc(N)nc32)[C@H](O)[C@@H]1O`, the 50% effective concentration (EC50) is 5.01 nM.

In the case of `CNC(=O)[C@H]1O[C@@H](n2cnc3c(NC4CCCCC4)nc(N)nc32)[C@H](O)[C@@H]1O`, the concentration giving a half-maximal response (EC50) was 126 nM.

Consider `CCN(CC)c1nc(NC2CCCC2)c2ncn([C@@H]3O[C@H](C(=O)NC)[C@@H](O)[C@H]3O)c2n1`, for which the concentration for a half-maximal effect (EC50) was 2510 nM.

As for `CNC(=O)[C@H]1O[C@@H](n2cnc3c(NCc4cccc(Cl)c4)nc(N)nc32)[C@H](O)[C@@H]1O`, the EC50 is 0.631 nM.

`CCCCNc1nc(N)nc2c1ncn2[C@@H]1O[C@H](C(=O)NC)[C@@H](O)[C@H]1O`: the concentration for a half-maximal effect (EC50) is 39.8 nM.

As for `CNC(=O)[C@H]1O[C@@H](n2cnc3c(NC4CCCC4)nc(N(C)C)nc32)[C@H](O)[C@@H]1O`, the EC50 is 631 nM.

A further assay concerns the target T2, Adenosine receptor A2b (Homo sapiens, UniProt P29275).
T2 sequence (P29275 whole entry): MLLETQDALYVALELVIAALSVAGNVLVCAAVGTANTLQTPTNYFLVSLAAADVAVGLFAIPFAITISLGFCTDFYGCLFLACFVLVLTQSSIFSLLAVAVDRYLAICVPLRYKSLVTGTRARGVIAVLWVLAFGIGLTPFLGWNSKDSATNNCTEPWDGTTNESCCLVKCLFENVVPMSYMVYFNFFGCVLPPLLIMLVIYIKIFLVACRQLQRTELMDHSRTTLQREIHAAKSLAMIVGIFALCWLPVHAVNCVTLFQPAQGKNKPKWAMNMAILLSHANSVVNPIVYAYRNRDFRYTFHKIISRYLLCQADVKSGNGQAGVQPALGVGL
The experiment in a line: Agonist activity at human adenosine A2B receptor expressed in FlpIn-CHO cells assessed as inhibition of forskolin-induced cAMP accumulation after 30 mins by fluorescence assay. The class given is functional, cell-based.
As for `CNC(=O)[C@H]1O[C@@H](n2cnc3c(NCC(c4ccccc4)c4ccccc4)nc(N)nc32)[C@H](O)[C@@H]1O`, the EC50 was 200 nM.

Take `CCNc1nc(N)nc2c1ncn2[C@@H]1O[C@H](C(=O)NC)[C@@H](O)[C@H]1O`: the half-maximal effective concentration (EC50) was 1580 nM.

In the case of `CNC(=O)[C@H]1O[C@@H](n2cnc3c(NCc4cccc(I)c4)ncnc32)[C@H](O)[C@@H]1O` [IB-MECA], the EC50 was 31.6 nM.

In the case of `CNC(=O)[C@H]1O[C@@H](n2cnc3c(NC4CCC4)nc(N)nc32)[C@H](O)[C@@H]1O`, the EC50 is 200 nM.

In the case of `CNC(=O)[C@H]1O[C@@H](n2cnc3c(NC4CCCCC4)nc(N)nc32)[C@H](O)[C@@H]1O`, the concentration for a half-maximal effect (EC50) was 2510 nM.

For the molecule `CCN(CC)c1nc(NC2CCCC2)c2ncn([C@@H]3O[C@H](C(=O)NC)[C@@H](O)[C@H]3O)c2n1`, the concentration for a half-maximal effect (EC50) was above 10000 nM.

Turning to `CNC(=O)[C@H]1O[C@@H](n2cnc3c(NCc4cccc(Cl)c4)nc(N)nc32)[C@H](O)[C@@H]1O`, the EC50 is 398 nM.

In the case of `CCCCNc1nc(N)nc2c1ncn2[C@@H]1O[C@H](C(=O)NC)[C@@H](O)[C@H]1O`, the EC50 was 1260 nM.

For `CNC(=O)[C@H]1O[C@@H](n2cnc3c(NC4CCCC4)nc(N(C)C)nc32)[C@H](O)[C@@H]1O`, the 50% effective concentration (EC50) was above 10000 nM.

The next assay has as its target Adenosine receptor A2a (Homo sapiens, UniProt P29274). The experiment in a line: Agonist activity at human adenosine A2A receptor expressed in FlpIn-CHO cells assessed as inhibition of forskolin-induced cAMP accumulation after 30 mins by fluorescence assay. It is filed as functional, cell-based.
Regarding `CNC(=O)[C@H]1O[C@@H](n2cnc3c(NCC(c4ccccc4)c4ccccc4)nc(N)nc32)[C@H](O)[C@@H]1O`, the concentration giving a half-maximal response (EC50) is 794 nM.

Regarding `CCNc1nc(N)nc2c1ncn2[C@@H]1O[C@H](C(=O)NC)[C@@H](O)[C@H]1O`, the concentration giving a half-maximal response (EC50) was above 10000 nM.

Turning to `CNC(=O)[C@H]1O[C@@H](n2cnc3c(NC4CCC4)nc(N)nc32)[C@H](O)[C@@H]1O`, the EC50 is 2510 nM.

Take `CNC(=O)[C@H]1O[C@@H](n2cnc3c(NC4CCCCC4)nc(N)nc32)[C@H](O)[C@@H]1O`: the half-maximal effective concentration (EC50) was 794 nM.

For `CCN(CC)c1nc(NC2CCCC2)c2ncn([C@@H]3O[C@H](C(=O)NC)[C@@H](O)[C@H]3O)c2n1`, the EC50 was above 10000 nM.

With `CNC(=O)[C@H]1O[C@@H](n2cnc3c(NCc4cccc(Cl)c4)nc(N)nc32)[C@H](O)[C@@H]1O`, the concentration for a half-maximal effect (EC50) was 398 nM.

Regarding `CCCCNc1nc(N)nc2c1ncn2[C@@H]1O[C@H](C(=O)NC)[C@@H](O)[C@H]1O`, the 50% effective concentration (EC50) was above 10000 nM.

Take `CNC(=O)[C@H]1O[C@@H](n2cnc3c(NC4CCCC4)nc(N(C)C)nc32)[C@H](O)[C@@H]1O`: the EC50 was 5010 nM.

The target of a further assay is T3, Adenosine receptor A1 (Homo sapiens, UniProt P30542).
T3 sequence (P30542 whole entry): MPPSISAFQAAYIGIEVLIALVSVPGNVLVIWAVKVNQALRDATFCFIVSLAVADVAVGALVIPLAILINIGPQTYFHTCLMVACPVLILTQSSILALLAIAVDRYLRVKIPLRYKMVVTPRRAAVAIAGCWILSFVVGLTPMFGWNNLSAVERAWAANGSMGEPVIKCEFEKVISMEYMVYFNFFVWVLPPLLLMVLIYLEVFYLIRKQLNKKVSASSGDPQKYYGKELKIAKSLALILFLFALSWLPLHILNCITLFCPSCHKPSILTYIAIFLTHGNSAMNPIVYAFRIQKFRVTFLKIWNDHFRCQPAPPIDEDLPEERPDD
The experiment in a line: Agonist activity at human adenosine A1 receptor expressed in FlpIn-CHO cells assessed as inhibition of forskolin-induced cAMP accumulation after 30 mins by fluorescence assay. It is filed as functional, cell-based.
With `CNC(=O)[C@H]1O[C@@H](n2cnc3c(NCC(c4ccccc4)c4ccccc4)nc(N)nc32)[C@H](O)[C@@H]1O`, the EC50 is 398 nM.

For `CCNc1nc(N)nc2c1ncn2[C@@H]1O[C@H](C(=O)NC)[C@@H](O)[C@H]1O`, the 50% effective concentration (EC50) was 2510 nM.

As to `CNC(=O)[C@H]1O[C@@H](n2cnc3c(NC4CCC4)nc(N)nc32)[C@H](O)[C@@H]1O`, the EC50 is 63.1 nM.

Regarding `CNC(=O)[C@H]1O[C@@H](n2cnc3c(NC4CCCCC4)nc(N)nc32)[C@H](O)[C@@H]1O`, the EC50 is 63.1 nM.

Consider `CCN(CC)c1nc(NC2CCCC2)c2ncn([C@@H]3O[C@H](C(=O)NC)[C@@H](O)[C@H]3O)c2n1`, for which the 50% effective concentration (EC50) was above 10000 nM.

For the molecule `CNC(=O)[C@H]1O[C@@H](n2cnc3c(NCc4cccc(Cl)c4)nc(N)nc32)[C@H](O)[C@@H]1O`, the EC50 is 316 nM.

In the case of `CCCCNc1nc(N)nc2c1ncn2[C@@H]1O[C@H](C(=O)NC)[C@@H](O)[C@H]1O`, the concentration for a half-maximal effect (EC50) was 794 nM.

Take `CNC(=O)[C@H]1O[C@@H](n2cnc3c(NC4CCCC4)nc(N(C)C)nc32)[C@H](O)[C@@H]1O`: the EC50 is above 10000 nM.
